Source: patent publication US9018187B2, “Cationic lipids and methods for the delivery of therapeutic agents” (Protiva Biotherapeutics, Inc., priority 2009, dated 2015)
Entries after “also recorded” stand apart in the source; their conditions may differ.

Legend:
[1] = TNS assay, apparent pKa of cationic lipid in 1:57 SNALP; conditions: 1:57 SNALP formulation containing encapsulated APOB siRNA
Description: 1:57 SNALP formulations containing encapsulated APOB siRNA were prepared as described in Section VI above with the following cationic lipids: (1) DLinDMA; (2) DLenDMA; (3) γ-DLenDMA (“g-DLenDMA”); (4) C2-DLinDAP; (5) DLinPip (4-OH); (6) DLinPip; (7) DLinPip (3-OH); (8) DLinDEA; (9) DDocDMA; (10) DAraDMA; (11) TLinDMA; (12) DLin-C2K Pip (30H); (13) DHep-C2K-DMA; (14) DPanDMA; (15) C2-DPanDMA (“DPan-C2-DMA”); (16) DPan-C2K-DMA; (17) DPan-C3K-DMA; (18) DPan-K6-DMA (“DPan-C1K6-DMA”); and (19) C2-TLinDMA.
The apparent pKa of the cationic lipids present in these SNALP formulations was determined using a 2-(p-toluidinyl)-naphthalene-6-sodium sulfonate (TNS) assay. TNS is a negatively-charged indicator of membrane potential that is electrostatically attracted to positively charged membranes (see, Bailey and Cullis, Biochemistry, 33 12573-80 (1994)). Subsequent adsorption to the lipid membrane results in the immediate environment of the TNS becoming more lipophilic, removing the water molecules that otherwise quench TNS fluorescence. As a result, TNS measures the surface potential of the particle, wherein the more positive the surface potential, the greater the level of fluorescence. The surface pKa values of each SNALP formulation were determined by varying the local pH in the presence of TNS. By plotting fluorescence versus pH, the pKa of the cationic lipid can be estimated in the particle as the pH where fluorescence equals 50% of total fluorescence.

[2] = Characterization of SNALP formulations (size, polydispersity, encapsulation); format: physicochemical; conditions: Table 5; for Initial Encaps. (%): 7:54 SNALP (PEG750-C-DMA 6.76 | cationic 54.06 | Chol 32.43 | DPPC 6.75 mol %) with PLK-1 siRNA; for Finished Product Encaps. (%) / Finished Product Poly / Finished Product Z-Avg (nm): 7:54 SNALP with PLK-1 siRNA
Description: In the context of nucleic acids, full encapsulation may be determined by performing a membrane-impermeable fluorescent dye exclusion assay, which uses a dye that has enhanced fluorescence when associated with nucleic acid. Specific dyes such as OliGreen® and RiboGreen® (Invitrogen Corp.; Carlsbad, Calif.) are available for the quantitative determination of plasmid DNA, single-stranded deoxyribonucleotides, and/or single- or double-stranded ribonucleotides. Encapsulation is determined by adding the dye to a liposomal formulation, measuring the resulting fluorescence, and comparing it to the fluorescence observed upon addition of a small amount of nonionic detergent. Detergent-mediated disruption of the liposomal bilayer releases the encapsulated nucleic acid, allowing it to interact with the membrane-impermeable dye. Nucleic acid encapsulation may be calculated as E=(Io−I)Io, where I and Io refer to the fluorescence intensities before and after the addition of detergent (see, Wheeler et al., Gene Ther., 6:271-281 (1999)). […]
(§1) Each SNALP formulation was administered by intravenous (IV) injection at 3 mg/kg into Scid mice containing Hep3B tumors (n=4 per group). Tumor tissue was colleted at 24 hours after SNALP administration and tumor PLK-1 mRNA levels were evaluated by performing a PLK-1/GAPDH QG assay. Table 5 provides a characterization of the SNALP formulations used in this in vivo study.

tumor PLK-1 mRNA = test: Tumor PLK-1 mRNA knockdown by 7:54 SNALP in Scid mice containing Hep3B tumors; format: in vivo, mouse; conditions: FIG. 11, 7:54 SNALP with PLK-1 siRNA, IV 3 mg/kg, 24 hours, PLK-1/GAPDH QG assay
Description: 7:54 SNALP formulations containing encapsulated PLK-1 siRNA were prepared with the following cationic lipids: (1) DLinDMA; (2) TLinDMA; (3) DLin-C1K-DMA (“DLin-K-DMA”); (4) DPanDMA; (5) DPan-C2-DMA (“C2-DPanDMA”); (6) DPan-C2K-DMA; (7) DPan-C3K-DMA; and (8) DPan-C1K6-DMA.
as §1

liver ApoB mRNA = test: Liver ApoB mRNA knockdown by 1:57 SNALP with APOB siRNA in mice; format: in vivo, mouse; conditions: 1:57 SNALP, 6:1 L:D, IV 0.1 mg/kg, female Balb/c mice, 48 hours
Description: Each SNALP formulation was administered by intravenous (IV) injection at 0.1 mg/kg into female Balb/c mice (n=3 per group). Plasma total cholesterol and/or liver ApoB mRNA levels were evaluated at 48 hours after SNALP administration. For dose response studies, SNALP formulations were administered by IV injection at 0.01 mg/kg, 0.03 mg/kg, or 0.1 mg/kg into female Balb/c mice (n=3 per group). Liver ApoB mRNA levels were evaluated at 48 hours after SNALP administration.
1:57 SNALP formulations containing encapsulated APOB siRNA at a 6:1 lipid:drug (L:D) ratio were prepared with the following cationic lipids: (1) DLinDMA; (2) Linoleyl/Linolenyl DMA (“Lin/LenDMA”); (3) DPanDMA; (4) TLinDMA; (5) Linoleyl/C6:0 DMA (“Lin/6:0”); (6) C2-DPanDMA; (7) DLin-C2K-Pip (30H); and (8) DHep-C2K-DMA.
(§2) Each SNALP formulation was administered by intravenous (IV) injection at 0.1 mg/kg into female Balb/c mice (n=3 per group). Livers were colleted at 48 hours after SNALP administration and liver ApoB mRNA levels were evaluated by performing an ApoB/GAPDH QG assay. Table 2 provides a characterization of the SNALP formulations used in this in vivo study.
In another study, 1:57 SNALP formulations containing encapsulated APOB siRNA at a 6:1 L:D ratio were prepared with the following cationic lipids: (1) DLinDMA; (2) C2-DPanDMA; (3) DPan-C2K-DMA; (4) DPan-C3K-DMA; and (5) DPan-C1K6-DMA.
as §2, with “3” for “2”
For dose response studies, SNALP formulations were administered by IV injection at 0.01 mg/kg, 0.033 mg/kg, or 0.1 mg/kg into female Balb/c mice (n=3 per group). Liver ApoB mRNA levels were evaluated at 48 hours after SNALP administration by a branched DNA assay (QuantiGene assay) to assess ApoB mRNA relative to the housekeeping gene GAPDH.

SMILES	pKa [1]	Initial Encaps. (%) [2]	Finished Product Encaps. (%) [2]	Finished Product Poly [2]	Finished Product Z-Avg (nm) [2]	tumor PLK-1 mRNA silencing activity (tumor PLK-1 mRNA)	ApoB silencing activity (liver ApoB mRNA) (liver ApoB mRNA; Example 16, FIG. 8, ApoB/GAPDH QG assay)	ApoB silencing activity (liver ApoB mRNA) (liver ApoB mRNA; Example 16 second study, FIG. 9, 0.1 mg/kg)
CC(C)CCCC(C)CCCC(C)CCCC(C)CCOCC(CCN(C)C)OCCC(C)CCCC(C)CCCC(C)CCCC(C)C (centres unmarked) [Compound C2-DPanDMA, 1,2-Diphytanyloxy-(N,N-dimethyl)-butyl-4-amine]	~6.1	86%	100%	0.06	81 nm	no difference in silencing activity	more potent compared to DLinDMA and substantially more potent compared to DPanDMA	more potent compared to DLinDMA; also recorded: greatest activity of all the phytanyl-containing cationic lipids tested
CC(C)CCCC(C)CCCC(C)CCCC(C)CCOCC(CN(C)C)OCCC(C)CCCC(C)CCCC(C)CCCC(C)C (centres unmarked) [DPanDMA, 1,2-Diphytanyloxy-3-(N,N-dimethyl)-propylamine]	5.5	75%	100%	0.08	76 nm	no difference in silencing activity		
